The series has as its system cardiomyocyte network. Put plainly: Simultaneous measurement of extracellular potential (FP) and contractile force (optical imaging of probe microparticles) in cardiomyocyte network. In kind it is cell-based. The text has this:
FIG. 43 is a schematic diagram showing an example of a system configuration of the present invention to simultaneously measure the mechanical properties and electrical properties of cardiomyocytes. The present system includes (1) a cellular network chip that can be used for culturing a cell population, includes a plurality of micro-electrodes disposed on a substrate and can be used for acquiring cellular potential data of a small area of the population; (2) a chip mounter for mounting the chip and joining electrically with cell-stimulating and/or cellular potential measuring system; (3) an environmental control vessel which can be used to control the environment such as temperature, humidity, oxygen concentration and carbon dioxide concentration of the cell population being cultured; (4) a micro multi-electrode potential measurement system that can give stimulation to a specific cell of a cardiomyocyte population, and allows simultaneous continuous measurements of cellular potentials of various small areas in the cell population; (5) one or more position-coordinate probe microparticles configured to measure changes in shape of myocardial cells and allow easy identification of cardiomyocytes using a plastic, polymer, glass or metal microparticles such as polystyrene microparticles, glass microparticles or gold microparticles of sizes from at minimum about 0.1, 0.2 μm, 0.3 μm, 0.4 μm, 0.5 μm, 0.6 μm, 0.7 μm, or preferably about 0.8 μm, more preferably about 0.9 μm, or most preferably about 1 μm, to at most about 500 μm, 400 μm, 300 μm, preferably about 200 μm, more preferably about 100 μm or most preferably about 50 μm, wherein the particles are disposed in the cell population by mixing them on the surface of the cardiomyocyte population in the cell network chip or in the cell population and culturing them; (6) an optical image capturing system for optically measuring the microparticles, wherein the system includes a light source, an optical microscope and an image-capturing camera to capture the images of the microparticles; and (7) a computer system for image analysis, cellular potential analysis, stimulus control and/or integrated data acquisition, wherein the system is capable of measurements of cellular potential and analysis of waveforms of the potential, measurements of cell displacements by image analysis and feedback stimulation based on the analysis results. In the measurements using the device system, as for the stimulus to cause depolarization of the myocardial cells, the stimulus can be provided by selecting mainly from three means, i.e., (A) measurements using conduction of autonomous pulsation of the cardiomyocyte population, (B) measurements of conduction by providing a forced electrical stimulation from outside to a specific cell in the cardiomyocyte population and (C) measurements of conduction by providing a feed-back stimulus at a specific timing to meet the relationship of the delay time and the value of the cellular potential based on the cell voltage measured data to the specific cells in the cardiomyocyte population.
FIG. 44 is an example of a data acquisition monitor screen showing an example of data obtained from an example of a system configuration of the present invention to simultaneously measure the mechanical properties and the electrical properties of cardiomyocytes. In a setting of this example, a large number of polystyrene microparticles are placed on the surface of the cardiomyocyte population, a probe-particle displacement-observation window for five of the polystyrene microparticles selected as probes is set, and the center of gravity of the window moves with the movement of the microparticles in the window, thereby displacement of the particular probe microparticles can be measured continuously as a change in vector time in the directions of the X-axis and Y-axis. […]

Where [1] appears, read: drug concentration of 100 nM, FIG. 52B.

In the case of `COc1ccc(CCN(C)CCCC(C#N)(c2ccc(OC)c(OC)c2)C(C)C)cc1OC` (stereo not drawn) [verapamil], where the note is “1000 nM, FIG. 52A”, the electrophysiological excitation entry was “does not occur” and the mechanical contraction entry is “mechanical contraction does not occur”. Also, the “angle fluctuation against decrease in contractile force” value (administration of 10 nM, FIG. 54B) is “barely increases”. Where the note is “administration of 100 nM, FIG. 54B”, the “fluctuation of contractile direction in the angular direction” value was “rapid fluctuation”. Besides, under setting [1], the contractile force entry was “disappear rapidly” and the “electrical firing of excitatory conduction of cells” value is on record as “maintained”.
